This note sets out measurements from PMC7782499, “Progerinin, an optimized progerin-lamin A binding inhibitor, ameliorates premature senescence phenotypes of Hutchinson-Gilford progeria syndrome” (Communications Biology, 2021).

Values joined by “and” are separate entries in the source; they are usually repeats but may differ in a detail not shown here. Equal entries are not always repeated.

The test system of data set [1] is HGPS cells. Put plainly: Cell proliferation of HGPS cells (MTT assay, cell counting). Particulars: for Cell proliferation (rate): 7 days, normalized to DMSO-treated cells; for Cell counting after treatment with chemicals, Ave / Cell proliferation after treatment with SLC-D011, Ave: average; for Cell counting after treatment with chemicals / Cell proliferation after treatment with SLC-D011: single replicates. In kind it is cell-based, human. Here is the method:
(§1) To determine the cellular viability, cells were treated with lonafarnib or SLC-D011 for 2 weeks. For MTT assay, cells were incubated with 0.5 mg/ml of 3-(4,5-dimethythiazol-2-yl)-2,5-diphenyl tetrazolium bromide (MTT) solution for 6 hr at 37 °C. After removing MTT solution, the precipitated materials were dissolved in […] DMSO and quantified by measuring the absorbance at 540 nm.
Fig. S4. Ef fect s of J H4, J H010, and SLC-D011 in ameliorating nuclear deformation of HGPS fibroblasts.
A. JH4, JH010, and SLC-D011 increase population of HGPS cells (n = 3 independent experiment; two-
tailed Student’s t -test), **p<0.001. […]
DAPI indicated DNA. C. Treatment with SLC-D011 (1 µM) for 7 days increased
cell proliferation in three different HGPS cells but not in normal fibroblasts (n = 3 independent experiments;
two-tailed Student’s t-test), **p < 0.001, N.S: not significant. AU, arbitrary units. […]
On the technique in general: Formazan colour is commonly taken as a measure of viable cells.

Data set [2] has as its system normal fibroblasts and HGPS cells. Put plainly: Long-term treatment cell viability (MTT assay) in normal fibroblasts and HGPS cells. The class given is cell-based. The method, then:
as §1
Fig. S12. […] A. SLC-D011, compar ed to lonafarnib, reduces exogenous progerin expression in HEK293 cells. B. Long- t e r m treatment (treated with 2μM ever y ot her day for 2 weeks) with lonafarnib or SLC-D011 was performed for normal fibroblasts and HGPS cells. […]
to determine the cellular viability after treatment with lonafarnib or SLC-D011 (n = 3 independent experiment; two-tailed Student’s t -test), **p < 0.001, *p < 0.05, N.S: not significant. […]

With `CC1(C)Oc2cc3oc(=O)ccc3cc2CC1OC(=O)C=Cc1cccnc1` (stereo not drawn) [JH4], the “Cell proliferation (rate)” value in data set [1] (AG03198, 2uM) is 1.267 and 1.276 and 1.118 and 1.25 and 1.333 and 1.2963; in data set [1] (AG03198, 2uM, mean), 1.257; in data set [1] (AG03198, 5uM) it was 1.833 and 1.759 and 1.647 and 1.964 and 1.667 and 1.926; in data set [1] (AG03198, 5uM, mean), 1.799. In addition, the “Cell counting after treatment with chemicals, Ave” value in data set [1] (AG11513) is 28. In data set [1] (AG11513), the “Cell counting after treatment with chemicals” value is 22 and 29 and 19 and 40 and 32 and 37 and 17 and 28.
As to `CC1(C)Oc2cc3oc(=O)ccc3cc2C[C@@H]1OC/C=C/c1ccccc1` [SLC-D011], the “Cell proliferation (rate)” value in data set [1] (AG03198, 2uM) is 1.467 and 1.31 and 1.235 and 1.393 and 1.367 and 1.407; in data set [1] (AG03198, 2uM, mean) it was 1.363; in data set [1] (AG03198, 5uM), 2.067 and 2.103 and 1.735 and 2.25 and 2.2 and 2.259; in data set [1] (AG03198, 5uM, mean), 2.102. The Cell counting in data set [1] (AG03198, 0.1μM, Ave) was 13.375; in data set [1] (AG03198, 0.1μM, individual replicate) it was 15 and 16 and 14 and 8 and 13 and 12; in data set [1] (AG03198, 0.2μM, Ave), 12.25; in data set [1] (AG03198, 0.2μM, individual replicate) it was 11 and 14 and 12 and 13 and 16 and 10; in data set [1] (AG03198, 0.5μM, Ave), 13.625; in data set [1] (AG03198, 0.5μM, individual replicate), 15 and 13 and 17 and 11 and 10 and 12 and 18. Besides, the Cell counting in data set [1] (AG03198, 1μM, Ave) was 18; in data set [1] (AG03198, 1μM, individual replicate) it was 17 and 21 and 26 and 16 and 13. The “Cell proliferation after treatment with SLC-D011, Ave” value in data set [1] (AG03198) is reported as 2.85 AU; in data set [1] (AG11498), 3.325 AU; in data set [1] (AG11513), 2.875 AU; in data set [1] (N9), 3.975 AU. Also, the “Cell proliferation after treatment with SLC-D011” value in data set [1] (AG03198) was 2.5 AU (2×) and 2.2 AU and 2.7 AU and 3.3 AU and 3.7 AU and 3 AU and 2.9 AU; in data set [1] (AG11498) it was 3.3 AU (2×) and 3.6 AU and 2.9 AU and 3.5 AU and 3.4 AU and 3.9 AU and 2.7 AU; in data set [1] (AG11513) it was 2 AU (2×) and 2.9 AU and 3.2 AU and 3.3 AU (2×) and 3.8 AU and 2.5 AU; in data set [1] (N9) it was 3.9 AU and 4.2 AU (2×) and 3.8 AU (2×) and 4 AU and 4.4 AU and 3.5 AU. In data set [1] (AG11513), the “Cell counting after treatment with chemicals, Ave” value is on record as 29.75. The “Cell counting after treatment with chemicals” value in data set [1] (AG11513) is 20 (2×) and 29 and 32 and 37 and 42 and 33 and 25. Moreover, the “Concentration promoting cell proliferation and ameliorating nuclear abnormality” value in data set [1] (direct cell counting assay, HGPS cells) was determined as 100 nM. The Cell viability in data set [2] (AG03198, Ave) was 1.64 ratio; in data set [2] (AG03198, individual replicate) it was 1.6383 ratio and 1.687 ratio and 1.593 ratio; in data set [2] (AG11513, Ave) it was 1.362 ratio; in data set [2] (AG11513, individual replicate), 1.362 ratio and 1.373 ratio and 1.352 ratio; in data set [2] (N9, Ave) it was 2.552 ratio; in data set [2] (N9, individual replicate), 2.559 ratio and 2.546 ratio and 2.551 ratio.
Turning to `NC(=O)N1CCC(CC(=O)N2CCC([C@H]3c4ncc(Br)cc4CCc4cc(Cl)cc(Br)c43)CC2)CC1` [lonafarnib, reference compound], the “Cell death on long-term treatment” value in data set [2] (2μM every other day for 2 weeks) is “induced cell death in both normal fibroblasts and HGPS cells”. In addition, the Cell viability was 0.5027 ratio in data set [2] (AG03198, Ave); 0.6483 ratio and 0.3112 ratio and 0.5484 ratio in data set [2] (AG03198, individual replicate); 0.692 ratio in data set [2] (AG11513, Ave); 0.6982 ratio and 0.6988 ratio and 0.6791 ratio in data set [2] (AG11513, individual replicate); 1.642 ratio in data set [2] (N9, Ave); 1.689 ratio and 1.546 ratio and 1.691 ratio in data set [2] (N9, individual replicate).
